Laboratory results taken from US20060148776A1, “Drug formulations having long and medium chain triglycerides” (Conforma Therapeutics Corporation, priority 2003, published 2006).

Experiments:
[1] = Characterisation and storage stability of 17-AAG emulsion (droplet size, drug load, degradants); type: physicochemical
Experimental: EDTA (disodium, dihydrate, USP), sucrose, and water for injection (WFI) are weighed into a 5 L polypropylene beaker and stirred until the solids are dissolved. The aqueous phase is then added to the oil phase and thorough mixing effected using a high-speed emulsifier equipped with an emulsion head at 5000 RPM until the oil adhering to the surface is “stripped off.” Shearing rate is then increased to 10000 RPM for 2-5 minutes to obtain a uniform primary emulsion. Laser light scattering (LLS) may be used to measure the average droplet size, and the solution may further be checked, e.g., under an optical microscope to determine the relative presence or absence of crystals and solids.
The emulsion pH is adjusted to 6.0±0.2 with 0.2N NaOH. The primary emulsion is then passed through a Model 11OS microfluidizer (Microfluidics Inc., Newton, Mass., USA) operating at static pressure of about 110 psi (operating pressure of 60-95 psi) with a 75-micron emulsion interaction chamber (F20Y) for 6-8 passages until the average droplet size is ≦190 nm. LLS may be used following the individual passages to evaluate progress. The solution may further be checked for the presence of crystals using polarized light under an optical microscope.

[2] = daily 1-hour infusion for 5 days every three weeks; cited from earlier work

## C=CCNC1=C2CC(C)CC(OC)C(O)C(C)/C=C(\C)C(OC(N)=O)C(OC)/C=C\C=C(/C)C(=O)NC(=CC1=O)C2=O (stereo not shown) [Compound 17-AAG, 17-allylaminogeldanamycin]
[1]; oil phase alone
  concentration achieved in the oil phase alone: 20000 to 30000 µg/mL
[1]; stored at 40° C.
  time until degradants of 17-AAG are seen: approximately 2 weeks
[1]; whole emulsion
  concentration achieved overall: ≤ 3000 µg/mL
[2]
  maximum tolerated dose (MTD): 40 mg/m^2
